What was measured:
[1] = Disintegration rate of dishwashing detergent tablet vs. additive ingredient; format: physicochemical; settings: additive in standard dishwashing detergent formulation; based on a tablet of 20 g; FIGURE
Source text: The FIGURE is a bar graph of Disintegration Rate (g/min) vs. Additive Ingredient present in a standard dishwashing detergent formulation.
The dishwashing disintegrant tablets of the invention herein have a disintegration rate of at least 40 g/min (based on a tablet of 20 g).

[2] = grams of solid to form a saturated solution in 100 g of water at 20° C.; cited from earlier work

Disintegration rate [1]: minimal
Compound: NC(N)=O [Urea]
Water Solubility (g/100 g) [2]: >100 g/100 g

Source: patent US6821941B2, “Tablet of compacted particulated cleaning composition” (ISP Investments Inc., priority 2002, dated 2004)
